Data published in paper PMC7504721, “Targeting the Initiator Protease of the Classical Pathway of Complement Using Fragment-Based Drug Discovery” (Molecules, 2020).

Target: T1, C1r proenzyme (Homo sapiens, UniProt P00736)
T1 construct: purchased Complement Technology (CompTech)
T1 sequence (P00736 18-705): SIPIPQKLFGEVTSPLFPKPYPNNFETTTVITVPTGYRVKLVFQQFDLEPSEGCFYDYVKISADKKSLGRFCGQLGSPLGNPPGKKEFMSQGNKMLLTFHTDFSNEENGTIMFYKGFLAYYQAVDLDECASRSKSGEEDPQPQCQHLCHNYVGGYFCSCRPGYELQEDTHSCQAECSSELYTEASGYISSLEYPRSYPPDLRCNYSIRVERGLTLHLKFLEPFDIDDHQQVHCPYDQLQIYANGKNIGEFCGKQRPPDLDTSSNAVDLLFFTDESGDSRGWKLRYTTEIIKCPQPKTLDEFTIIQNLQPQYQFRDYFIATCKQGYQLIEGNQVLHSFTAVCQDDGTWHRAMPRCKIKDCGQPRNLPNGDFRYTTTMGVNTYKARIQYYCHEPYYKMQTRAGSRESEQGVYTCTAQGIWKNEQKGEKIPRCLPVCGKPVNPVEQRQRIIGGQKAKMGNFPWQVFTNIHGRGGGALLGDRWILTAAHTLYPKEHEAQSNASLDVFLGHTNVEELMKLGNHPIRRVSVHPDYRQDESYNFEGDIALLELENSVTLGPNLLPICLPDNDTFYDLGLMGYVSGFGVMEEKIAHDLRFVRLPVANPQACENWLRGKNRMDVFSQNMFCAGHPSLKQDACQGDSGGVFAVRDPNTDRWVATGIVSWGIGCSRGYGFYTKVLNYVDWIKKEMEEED
Assay: C1r proenzyme activation (autoactivation) assay with Z-Gly-Arg-sBzl substrate
Assay type: biochemical
Conditions: 10 mM compound, 37 °C, 1 h
Method: Figure 6 CMP-1696 structure activity relationship. (A) CMP-1696 was redocked onto C1r-CCP2-SP (PDB: 1MD8, grey surface representation) and the top nine scored poses are shown. All CMP-1696 poses dock into the S1 subsite (cyan) near the catalytic triad (blue). (B) C1r autoactivation assay. C1r proenzyme undergoes time-dependent autoactivation at 37 °C. Autoactivation was measured using a synthetic substrate for C1r enzyme. The reaction progress of vehicle control (dashed line) or in the presence of 10 mM CMP-1696 (solid line) was monitored for 1 h. (C) Molecular dynamics (MD) simulations of CMP-1696/C1r-CCP2-SP. Root mean square deviation (RMSD) in nm for each of the CMP-1696 poses measured over the 10 ns molecular dynamics simulation. (D) MM/PBSA energy calculations for each pose in the 10 ns MD simulations indicate that pose 1 is the most energetically favorable. […]
Individual stock solutions of 1 mM of Z-Gly-Arg-sBzl (MP Biomedicals, Irvine, CA, USA) and 5,5′-Dithiobis-(2-nitrobenzoic acid) (DTNB) (Sigma-Aldrich, St. Louis, MO, USA) were made by dissolving powder in DMSO to give 10 mM stocks of each compound, which were then diluted to 1 mM in assay buffer (20 mM HEPES pH 7.3, 140 mM NaCl, 0.005% (v/v) Tween-20, 2 mM CaCl2). […] Plates were read at 450 nm using an EnSight multimode plate reader (Perkin-Elmer, Waltham, MA, USA) and the reaction progress was tracked for 1 h.

inhibition of autocatalysis of C1r proenzyme: directly inhibited
Structure (SMILES): COCc1nc(-c2ccc(OC3CNC3)cc2)no1 [CMP-1696]
